Results published in PubChem BioAssay AID588610 (The Scripps Research Institute Molecular Screening Center, 2011).

Target: Epidermal growth factor receptor (Homo sapiens) (UniProt P00533)
Experiment: EGFR protein level change in DLD-1 cells, late-stage follow-up, counter-screen for KLF5 inhibitor project, DLD1 cells, chemiluminescent western blot (AID 588610)
Conditions: 24 h, at 10 µM; for inhibition of EGFR protein level: stronger effect = higher value; for fold change: measured here: EGFR band fold change vs DMSO

Compound | inhibition of EGFR protein level [%] | fold change
CN(C(=O)CNC(=O)/C=C/c1cccc(Cl)c1)C1CCS(=O)(=O)CC1 | -478 | 5.13
CN(C(=O)CNC(=O)/C=C/c1cccc(Cl)c1)C1CCS(=O)(=O)C1 (stereo not given) | – | 5.24
CN(C(=O)COC(=O)/C=C/c1cccc([N+](=O)[O-])c1)C1CCS(=O)(=O)C1 (stereo not given) | -314 | 3.54
